Reference: US8623661B2, “Iron chelating agent, method for producing same, method for determining amount of iron ions and method for trapping iron ions” (National University Corporation Asahikawa Medical College, priority 2008, dated 2014)

Experiments:
Assay type in all cases: binding
[1] = test system: iron citrate complex ammonium salt (FAC); test: Evaluation C: chelating ability in MOPS/acetonitrile solvent, FAC solution
Experimental: (§1) Evaluation was carried out by the following evaluation method C as to whether or not the iron chelating agent according to Examples 1 to 3 had chelating ability with iron in 3-morpholinopropanesulfonic acid (C7H15NO4S;MOPS) and acetonitrile solution as solvents used in high performance liquid chromatography (HPLC).
(§2) 2.09 g of morpholinopropanesulfonic acid (C7H15NO4S; FW=209.26, Code 341-01801, Lot PX013, manufactured by Dojindo/Wako Corporation) was added to a 100 mL Erlenmeyer flask, 80 mL of ultrapure water (pure water produced by an ultrapure water production system manufactured by Millipore Corporation (Milli-Q); “Milli-Q water”) was added thereto and dissolved [pH 4.15 (24.4° C.)]. To this solution, 1N sodium hydroxide solution (1 mol/1 sodium hydroxide solution, Code 192-02175, Lot SEP7274, manufactured by Wako Pure Chemicals Industries) was added in 100 μl portions, the pH was adjusted to 7.0 and further Milli-Q water was made up to 100 mL in a measuring cylinder, whereby 100 mL of MOPS solution (pH 6.99) was prepared.
(§3) An iron chelating agent solution having an iron chelating agent concentration of 50 mM was prepared with respect to the iron chelating agent according to Examples 1 to 3, in the same manner as the preparation method of the iron chelating solution in evaluation A of the iron chelating agent.
(§4) Further, 100 mM of MOPS solution (pH6.99) prepared by the preparation method of the MOPS solution was used.
(§5) Furthermore, a stock solution of acetonitrile (C2H3N, FW=41.05, Code 347-06641, Lot WPI96, manufactured by Dojindo/Wako corporation) was used.
(§6) 13.8 mL of Milli-Q water was taken in a 50 mL conical tube, 1.2 mL of each of the iron chelating agent solutions (Fe-Ser•Na (50 mM), Fe-His•Na (50 mM), Fe-Glu•Na (50 mM)) according to the iron chelating agents of Examples 1 to 3 was added, 1.0 mL of 100 mM MOPS solution was added thereto, and a further 4.0 mL of acetonitrile solution was added to produce an iron chelating solution using MOPS. The iron chelating agent solutions using MOPS and iron chelating agent according to Examples 1 to 3 were defined respectively as Fe-Ser•Na (MOPS solution)” (iron chelating agent according to
(§7) Example 1), “Fe-His•Na (MOPS solution)” (iron chelating agent according to Example 2), and “Fe-Glu•Na(MOPS solution)” (iron chelating agent according to Example 3).
An iron citrate complex ammonium salt solution (FAC solution (20 mM)) having a concentration of iron ions of 20 mM and an iron citrate complex ammonium salt solution (FAC solution (2 mM)) having a concentration of iron ions of 2 mM were prepared, in the same manner as the preparation method of the iron citrate complex ammonium solution in evaluation A of the iron chelating agent.
FAC solution (20 mM) was added to and mixed with each of the iron chelating agent solutions [Fe-Ser•Na (MOPS solution), Fe-His•Na (MOPS solution), Fe-Glu•Na (MOPS solution)] using MOPS.

[2] = test system: iron nitrilotriacetate complex (Fe-NTA); test: Evaluation C: chelating ability in MOPS/acetonitrile solvent, Fe-NTA solution
Experimental: as §1, §2, §3, §4, §5, §6, §7
Further, iron nitrilotriacetate complex solution (“Fe-NTA solution (20 mM)”) having a concentration of iron ions of 20 mM and iron nitrilotriacetate complex solution (“Fe-NTA solution (2 mM)”) having a concentration of iron ions of 2 mM were prepared, in the same manner as the preparation method of iron nitrilotriacetate complex solution in evaluation B of the iron chelating agent.
Further, Fe-NTA solution (20 mM) was added to and mixed with each of the iron chelating agent solutions [Fe-Ser•Na (MOPS solution), Fe-His•Na (MOPS solution), Fe-Glu•Na (MOPS solution)] using MOPS. […] Further, Fe-NTA solution (2 mM) was added and mixed thereto as described above.

[3] = molecular target: T1, transferrin iron complex (holo-Transferrin (hTf), human) (Homo sapiens, UniProt P02787); test: Evaluation D: capture of iron ions from transferrin iron complex; settings: for hTf residual ratio (%): relative to non-treated holo-Transferrin, 24 hours with 5 mM chelator solution; for Absorbance (466 nm): transferrin fraction after 24 hours at room temperature with 5 mM chelator solution and 50 μM transferrin iron complex solution, ultrafiltration
T1 construct: purchased Sigma Corporation T0665-50MG
T1 sequence (P02787 20-698, one chain of several): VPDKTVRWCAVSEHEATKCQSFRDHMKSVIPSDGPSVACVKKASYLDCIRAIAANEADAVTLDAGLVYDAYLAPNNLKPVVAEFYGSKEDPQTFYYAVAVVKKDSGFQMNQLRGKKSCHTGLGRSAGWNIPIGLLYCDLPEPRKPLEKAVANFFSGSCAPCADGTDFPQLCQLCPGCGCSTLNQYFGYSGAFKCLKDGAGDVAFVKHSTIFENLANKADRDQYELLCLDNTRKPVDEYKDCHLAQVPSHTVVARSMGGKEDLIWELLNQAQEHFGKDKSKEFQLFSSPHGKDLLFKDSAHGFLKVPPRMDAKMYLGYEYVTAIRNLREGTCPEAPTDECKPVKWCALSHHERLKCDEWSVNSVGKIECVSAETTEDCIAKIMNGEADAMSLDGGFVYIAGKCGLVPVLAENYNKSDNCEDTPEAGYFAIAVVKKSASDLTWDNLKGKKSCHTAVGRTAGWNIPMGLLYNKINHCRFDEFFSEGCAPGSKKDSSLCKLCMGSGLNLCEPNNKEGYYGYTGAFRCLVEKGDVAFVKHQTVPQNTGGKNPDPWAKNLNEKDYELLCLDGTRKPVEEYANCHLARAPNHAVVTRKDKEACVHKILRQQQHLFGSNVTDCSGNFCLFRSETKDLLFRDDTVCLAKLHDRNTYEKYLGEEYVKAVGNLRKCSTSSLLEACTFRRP
Experimental: Evaluation was carried out by the following evaluation method D with respect to properties whether iron ions were captured from the transferrin iron complex (transferrin iron complex in which transferrin is chelated to iron ions) by the iron chelating agent according to Examples 1 to 2.
The iron chelating agent according to Example 1 was dissolved in 1×D-PBS (pH 7.2) to prepare an iron chelating agent solution (“Fe-Ser•Na (5 mM)”) having an iron chelating agent concentration of 5 mM, in the same manner as the preparation method of the iron chelating agent in evaluation A of the iron chelating agent.
Further, as described above, the iron chelating agent according to Example 2 was dissolved in 1×D-PBS (pH 7.2) to prepare an iron chelating agent solution (“Fe-His•Na (5 mM)”) having an iron chelating agent concentration of 5 mM.
Further, 800 mM HEDTA solution as the iron chelating agent according to Comparative Example 3 was prepared as described above. 13.76 g of crystals were taken in a 50 mL conical tube, 25 mL of Milli-Q water was added and dissolution performed, and then adjustment to pH 7.0 was performed using concentrated hydrochloric acid (35 to 37%) and the total amount was adjusted to 50 mL using Milli-Q water (HEDTA solution (800 mM)). HEDTA solution (“HEDTA solution (5 mM)”) having a concentration of HEDTA of 5 mM was prepared using 1×D-PBS (pH 7.2).
Further, 800 mM solution (pH 7.0) was prepared by using NTA2Na and NTA3Na as iron chelating agents according to Comparative Example 1 as described above. 9.4 g of NTA2Na was dissolved in Milli-Q water and the total volume was made up to 50 mL (referred to as “NTA2Na solution (800 mM)” in some cases). Meanwhile, 11.0 g of NTA3Na was dissolved in Milli-Q water and the total volume was made up to 50 mL (“NTA3Na solution (800 mM)”). NTA2Na solution (800 mM) (pH 6.3) and NTA3Na solution (800 mM) (pH 11.3) were mixed to produce 800 mM of NTA solution with pH 7.0. NTA solution (“NTA solution (5 mM)”) having a concentration of NTA of 5 mM was prepared by using 1×D-PBS (pH 7.2).
A commercially available transferrin iron complex (holo-Transferrin (hTf), human, Code T0665-50MG, Lot 095K1633, manufactured by Sigma Corporation) was dissolved in 1×D-PBS (pH 7.2) to prepare a transferrin iron complex solution having a concentration of iron ions (iron ions which are transferrin-bound iron) of 50 μM.
50 μl of 50 μM transferrin iron complex solution was taken in a 1.5 mL sample tube, 50 μl of each of iron chelating agent solutions (Fe-Ser•Na (5 mM), Fe-His•Na (5 mM), NTA solution (5 mM), HEDTA solution (5 mM)) was added thereto and left at room temperature under light shielding for 24 hours. 50 μl of various reaction liquids was taken in a centrifugal ultrafiltration unit (trade name “Amicon Ultra-4 Ultracel-30k” UFC8030, manufactured by Millipore Corporation), and 450 μl of 1×D-PBS (pH 7.2) was added thereto, centrifugation was carried out at 3,500 rpm and 20° C. for 30 minutes, and transferrin and each low molecular chelating agents were separated (first time). After centrifugation, the filtrate was discarded. 450 μl of 1×D-PBS (pH 7.2) was added again to the solution (about 50 μl) containing transferrin concentrated in a unit and centrifugation was carried out with the same conditions (second time). A solution containing transferrin concentrated in a unit was recovered after the second time of centrifugation and the absorbance at the wavelength of 466 nm was measured using a spectrophotometer (trade name “Spectrophotometer DU 640”, manufactured by Beckman Coulter).

[4] = FAC solution (2 mM) added to chelating agent MOPS solution (MOPS, acetonitrile)
[5] = FAC solution (20 mM) added to chelating agent MOPS solution (MOPS, acetonitrile)
[6] = Fe-NTA solution (2 mM) added to chelating agent MOPS solution (MOPS, acetonitrile)
[7] = Fe-NTA solution (20 mM) added to chelating agent MOPS solution (MOPS, acetonitrile)

Compound	colour of the solution after mixing [1, 4]	colour of the solution after mixing [1, 5]	colour of the solution after mixing [2, 6]	colour of the solution after mixing [2, 7]	hTf residual ratio (%) [3]	Absorbance (466 nm) [3]
O=C(O)C(Cc1c[nH]cn1)NCc1ccccc1O (centres unmarked) [Example 2, o-[(1-carboxy-2-(1H-imidazol-4-yl)ethyl)-amino-methyl]-phenol]	dark brown-colored	dark brown-colored	dark brown-colored	dark brown-colored	83.78%	0.0620
N-(2-hydroxyethyl)-ethylenediamine triacetic acid [Comparative Example 3, reference compound]	–	–	–	–	69.59%	0.0515
O=C(O)CN(CC(=O)O)CC(=O)O [Comparative Example 1, nitrilotriacetic acid, reference compound]	–	–	–	–	79.59%	0.0589
NC(=O)CCC(NCc1ccccc1O)C(=O)O (centres unmarked) [Example 3, o-[(1-carboxy-2-carbamoylmethylethyl)-amino-methyl]-phenol]	dark brown-colored	dark brown-colored	dark brown-colored	dark brown-colored	–	–
